Each compound was assayed against T1, human recombinant mGluR5 (Homo sapiens, UniProt P41594) (assay: positive modulation of mGluR5, calcium based FLIPR assay). Conditions: EC50 of the modulation; HEK 293 cell line expressing human recombinant mGluR5; peak height of Ca fluorescence signal after glutamate at approx. 5% basal stimulation; read-out: EC50.
T1 construct: expressed in transfected cells; host or cells: HEK 293 cell line, cultured with tetracycline, hygromycin and geneticin; tetracycline is withdrawn 3-7 days before the assay
Assay type: cell-based
Description: The positive modulation of mGluR5 is measured in a HEK 293 cell line expressing human recombinant mGluR5 and is detected with calcium based FLIPR assay. The cells are cultured with DMEM supplemented with 10% FCS, 2 μg/mL tetracycline, 100 μg/mL hygromycin and 500 μg/mL gneticin. The cell culture media is exchanged for tetracycline-free cell culture media 3-7 days before the assay. One day before the assay the cell culture medium is exchanged to DMEM without glutamine and phenol red and supplemented with 10% FCS, 100 μg/mL hygromycin and 500 μg/mL geneticin. On the assay day, the medium of the subconfluent cultures is removed and the cells are detached by addition of 2.5 ml EDTA (0.02%) per 175 cm2 culture flask for 1 minute. The cells are resuspend in Ringer solution (140 mM NaCl, 5 mM KCl, 2.5 mM CaCl2, 1.5 mM MgCl2, 5 mM Glucose, 10 mM Hepes; adjusted to pH 7.4 with NaOH), pooled and Ringer solution added to adjust the volume to 50 mL. The cell suspension is centrifuged for 5 min at 1500 U/min (425 g). The supernatant is removed and the cells washed a second time with 50 ml fresh Ringer solution and centrifuged again as before. The supernatant is again removed and the pellet resuspended in Ringer solution to 1,000,000 cells/ml (1×10^6 cells/mL). The cells are plated onto BD BioCoat Poly-D-Lysine 384 well plates (20.000 cells/well; 20 μl/well). The lid covered plates are then incubated until use at 37° C./10% CO2. For dye loading, 20 μl of Calcium-4 assay kit solution (prepared according to the manufacturer's description in Ringer solution) are added to the cells and the plates are incubated for 80 min 37° C. and then 10 min at room temperature. • Controls, Compound dilution and assay execution: • Each assay plate contained wells with “high” and “low” controls:
Low controls 1% DMSO/ringer solution+basal glutamate activation (defined as 100% CTL).
High controls 10 μM CDPPB+basal glutamate activation (defined as 200% CTL).
Test compounds are dissolved and diluted in DMSO to 100-fold the desired concentrations. In a second step, the compounds are diluted in Ringer solution such that the compounds are 4-fold more concentrated than the desired final assay concentration. The final DMSO concentration was 1%.
20 μl of each compound solution are then transferred to the assay plate and the Ca2+ kinetic is measured to determine any intrinsic compound activity. After 5 min incubation in the FLIPR device, the second stimulation with 20 μl of glutamate in Ringer solution (glutamate concentration adjusted to approximately 5% basal stimulation of the maximal possible glutamate effect) is added and the kinetic Ca2+ response of the wells was measured for the modulation effect.
The peak height of the Ca release related fluorescence signal (9-66) is used for the EC50. The EC50 of the modulation is calculated over a nonlinear regression with GraphPad Prism (Table 1).

T1 sequence (P41594 21-1212): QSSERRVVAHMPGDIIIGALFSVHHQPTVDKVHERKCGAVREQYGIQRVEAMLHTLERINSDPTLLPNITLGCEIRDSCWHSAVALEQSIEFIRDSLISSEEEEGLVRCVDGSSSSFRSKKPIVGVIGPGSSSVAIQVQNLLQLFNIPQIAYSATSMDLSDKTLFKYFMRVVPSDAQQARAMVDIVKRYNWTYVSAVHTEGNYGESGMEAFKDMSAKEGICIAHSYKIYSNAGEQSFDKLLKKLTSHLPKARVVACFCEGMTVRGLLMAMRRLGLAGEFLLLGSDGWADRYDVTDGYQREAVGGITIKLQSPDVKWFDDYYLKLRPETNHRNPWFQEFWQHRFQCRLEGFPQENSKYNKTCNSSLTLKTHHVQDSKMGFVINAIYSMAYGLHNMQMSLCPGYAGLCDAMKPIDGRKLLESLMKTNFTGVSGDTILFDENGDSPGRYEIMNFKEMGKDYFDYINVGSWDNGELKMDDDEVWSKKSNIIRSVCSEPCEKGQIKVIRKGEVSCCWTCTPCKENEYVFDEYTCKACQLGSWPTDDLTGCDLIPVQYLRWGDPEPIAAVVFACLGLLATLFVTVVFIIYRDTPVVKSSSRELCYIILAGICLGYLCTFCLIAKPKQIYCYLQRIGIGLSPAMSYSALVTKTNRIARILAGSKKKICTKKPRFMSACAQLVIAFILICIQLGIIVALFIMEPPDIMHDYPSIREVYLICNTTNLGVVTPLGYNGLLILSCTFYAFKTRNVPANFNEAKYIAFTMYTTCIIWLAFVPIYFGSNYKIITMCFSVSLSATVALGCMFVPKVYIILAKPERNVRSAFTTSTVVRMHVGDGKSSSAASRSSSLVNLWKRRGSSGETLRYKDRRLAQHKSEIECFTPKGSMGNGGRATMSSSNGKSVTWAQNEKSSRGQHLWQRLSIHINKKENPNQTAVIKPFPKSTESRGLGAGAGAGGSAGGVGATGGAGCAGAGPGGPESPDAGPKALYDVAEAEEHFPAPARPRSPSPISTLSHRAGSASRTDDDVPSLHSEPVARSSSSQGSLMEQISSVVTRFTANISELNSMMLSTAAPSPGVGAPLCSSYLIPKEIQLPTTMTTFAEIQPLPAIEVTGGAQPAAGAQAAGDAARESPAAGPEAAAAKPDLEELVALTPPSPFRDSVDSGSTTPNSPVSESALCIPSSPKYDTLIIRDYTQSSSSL

| SMILES | EC50 [nM] |
| --- | --- |
| Cc1ncc2c(n1)CCN(C(=O)Cn1nc(-c3ccc(F)cc3)nc1-c1ccc(F)cc1)C2 [Example 7.02.55.] | 1200 |
| Cc1nc2c(s1)CN(C(=O)Cn1nc(-c3ccc(F)cc3)nc1-c1ccc(F)cc1)CC2 [Example 7.02.56.] | 932 |
| O=C(Cn1nc(-c2ccc(F)cc2)nc1-c1ccc(F)cc1)N1CCC(c2ncno2)CC1 [Example 7.02.57.] | 1450 |
| Cc1nnc(C2CCN(C(=O)Cn3nc(-c4ccc(F)cc4)nc3-c3ccc(F)cc3)CC2)o1 [Example 7.02.59.] | 450 |
| Cc1noc(C2CCN(C(=O)Cn3nc(-c4ccc(F)cc4)nc3-c3ccc(F)cc3)CC2)n1 [Example 7.02.61.] | 511 |
| O=C(Cn1nc(-c2ccc(F)cc2)nc1-c1ccc(F)cc1)N1Cc2nc(-c3ccccc3)sc2C1 [Example 7.02.63.] | 1010 |
| O=C(Cn1nc(-c2ccc(F)cc2)nc1-c1ccc(F)cc1)N1CCC(c2ccccn2)C1 (centres unmarked) [Example 7.02.64.] | 976 |
| Cc1nc2c(o1)CCN(C(=O)Cn1nc(-c3ccc(F)cc3)nc1-c1ccc(F)cc1)C2 [Example 7.02.65.] | 407 |
| O=C(Cn1nc(-c2ccc(F)cc2)nc1-c1ccc(F)cc1)N1CC=C(c2ccccc2)CC1 [Example 7.02.66.] | 559 |
| CC(C)c1ncc2c(n1)CCN(C(=O)Cn1nc(-c3ccc(F)cc3)nc1-c1ccc(F)cc1)C2 [Example 7.02.70.] | 376 |
| O=C(c1ccccc1)C1CCN(C(=O)Cn2nc(-c3ccc(F)cc3)nc2-c2ccc(F)cc2)CC1 [Example 7.02.71.] | 441 |
| O=C(Cn1nc(-c2ccc(F)cc2)nc1-c1ccc(F)cc1)N1CC(c2ccccn2)C1 [Example 7.02.72.] | 774 |
| O=C(Cn1nc(-c2ccc(F)cc2)nc1-c1ccc(F)cc1)N1CCN(c2ncnc3sccc23)CC1 [Example 7.02.74.] | 798 |
| Cc1cc(-c2nc(-c3ccccc3)n(CC(=O)N3CCc4ncnc(-c5ccccc5)c4CC3)n2)ccc1F [Example 7.02.80.] | 323 |
| O=C(Cn1nc(-c2ccc(F)cc2)nc1-c1ccc(F)cc1)N1CCc2nc(-c3ccccc3)ncc2C1 [Example 7.03.002.] | 708 |
| Cc1nc(C2CCN(C(=O)Cn3nc(-c4ccc(F)cc4)nc3-c3ccc(F)cc3)CC2)oc1C [Example 7.03.003.] | 851 |
| O=C(Cn1nc(-c2ccc(F)cc2)nc1-c1ccc(F)cc1)N1CCC(C(O)c2ccccc2)CC1 (centres unmarked) [Example 7.03.004.] | 1060 |
| O=C(Cn1nc(-c2ccc(F)cc2)nc1-c1ccc(F)cc1)N1CCC(Oc2ccccc2)CC1 [Example 7.03.005.] | 958 |
| COc1cc2c(cc1OC)CN(C(=O)Cn1nc(-c3ccc(F)cc3)nc1-c1ccc(F)cc1)CC2 [Example 7.03.006.] | 1680 |
| O=C(Cn1nc(-c2ccc(F)cc2)nc1-c1ccc(F)cc1)N1CCN(Cc2ccccc2)C(=O)C1 [Example 7.03.007.] | 1380 |
| O=C(Cn1nc(-c2ccc(F)cc2)nc1-c1ccc(F)cc1)N1CCC(c2nnc(-c3ccccc3)o2)CC1 [Example 7.03.008.] | 752 |
| O=C(Cn1nc(-c2ccc(F)cc2)nc1-c1ccc(F)cc1)N1CCC(Oc2ccccn2)CC1 [Example 7.03.009.] | 808 |
| O=C(Cn1nc(-c2ccc(F)cc2)nc1-c1ccc(F)cc1)N1CCN(c2ccccc2)C(=O)C1 [Example 7.03.010.] | 734 |
| O=C(Cn1nc(-c2ccc(F)cc2)nc1-c1ccc(F)cc1)N1CCc2ncsc2CC1 [Example 7.03.011.] | 453 |
| O=C(Cn1nc(-c2ccc(F)cc2)nc1-c1ccc(F)cc1)N1CCC(c2ncccn2)CC1 [Example 7.03.012.] | 1470 |

The next compounds have a lower EC50 than those just listed; values first:

| EC50 [nM] | SMILES |
| --- | --- |
| 229 | O=C(Cn1nc(-c2ccc(F)cc2)nc1-c1ccc(F)cc1)N1CCc2cc(O)ccc2C1 [Example 7.02.53.] |
| 206 | Cc1nc2c(o1)CN(C(=O)Cn1nc(-c3ccc(F)cc3)nc1-c1ccc(F)cc1)CC2 [Example 7.02.54.] |
| 214 | O=C(Cn1nc(-c2ccc(F)cc2)nc1-c1ccc(F)cc1)N1Cc2ccc(O)cc2C1 [Example 7.02.58.] |
| 294 | COc1ncc2c(n1)CCN(C(=O)Cn1nc(-c3ccc(F)cc3)nc1-c1ccc(F)cc1)C2 [Example 7.02.60.] |
| 311 | COc1cc2c(cc1OC)CCN(C(=O)Cn1nc(-c3ccc(F)cc3)nc1-c1ccc(F)cc1)CC2 [Example 7.02.62.] |
| 133 | O=C(Cn1nc(-c2ccc(F)cc2)nc1-c1ccc(F)cc1)N1CCc2cccnc2CC1 [Example 7.02.67.] |
| 198 | O=C(Cn1nc(-c2ccc(F)cc2)nc1-c1ccc(F)cc1)N1CCN(c2nnc(C(F)(F)F)s2)CC1 [Example 7.02.68.] |
| 148 | O=C(Cn1nc(-c2ccc(F)cc2)nc1-c1ccc(F)cc1)N1CCN(c2noc3ccccc23)CC1 [Example 7.02.73.] |
| 242 | O=C(Cn1nc(-c2ccc(F)cc2)nc1-c1ccc(F)cc1)N1CCN(c2ncnc3c2SCC3)CC1 [Example 7.02.76.] |
| 232 | CC(=O)Nc1nc2c(s1)CCN(C(=O)Cn1nc(-c3ccc(F)c(C)c3)nc1-c1ccccc1)CC2 [Example 7.02.77.] |
| 274 | Cc1cc(-c2nc(-c3ccccc3)n(CC(=O)N3CCc4nc(N)sc4C3)n2)ccc1F [Example 7.02.78.] |
| 54 | COC(=O)c1ccc2c(c1)CCN(C(=O)Cn1nc(-c3ccc(F)c(C)c3)nc1-c1ccccc1)CC2 [Example 7.02.79.] |
| 175 | Cc1nc2c(s1)CC(C)N(C(=O)Cn1nc(-c3ccc(F)c(C)c3)nc1-c1ccccc1)CC2 (centres unmarked) [Example 7.02.81.] |
| 149 | Cc1cc(-c2nc(-c3ccccc3)n(CC(=O)N3CCc4cc(-c5ccccc5)nnc4CC3)n2)ccc1F [Example 7.02.82.] |
| 105 | COc1ccc2c(n1)CCN(C(=O)Cn1nc(-c3ccc(F)c(C)c3)nc1-c1ccccc1)CC2 [Example 7.02.83.] |
| 115 | Cc1nc2c(s1)CN(C(=O)Cn1nc(-c3ccc(F)c(C)c3)nc1-c1ccccc1)CC2 [Example 7.02.84.] |
| 33 | COc1nc2c(s1)CCN(C(=O)Cn1nc(-c3ccc(F)c(C)c3)nc1-c1ccccc1)CC2 [Example 7.02.85.] |
| 28 | Cc1nc2c(o1)CCN(C(=O)Cn1nc(-c3ccc(F)c(C)c3)nc1-c1ccccc1)CC2 [Example 7.02.86.] |
| 58.8 | Cc1cc(-c2nc(-c3ccccc3)n(CC(=O)N3CCc4ncsc4CC3)n2)ccc1F [Example 7.02.87.] |
| 180 | Cc1cc(-c2nc(-c3ccccc3)n(CC(=O)N3CCc4ccc(N)cc4CC3)n2)ccc1F [Example 7.02.88.] |
| 194 | Cc1cc(-c2nc(-c3ccccc3)n(CC(=O)N3CCc4cn[nH]c4CC3)n2)ccc1F [Example 7.02.89.] |
| 155 | COc1cc2c(cc1OC)CCN(C(=O)Cn1nc(-c3ccc(F)c(C)c3)nc1-c1ccccc1)CC2 [Example 7.02.90.] |
| 107 | COc1ccc2c(c1)CCN(C(=O)Cn1nc(-c3ccc(F)c(C)c3)nc1-c1ccccc1)CC2 [Example 7.02.91.] |
| 46 | Cc1nc2c(o1)CCN(C(=O)Cn1nc(-c3ccc(F)c(C)c3)nc1-c1ccccc1)C2 [Example 7.02.92.] |
| 164 | Nc1nc2c(s1)CCN(C(=O)Cn1nc(-c3ccc(F)cc3)nc1-c1ccc(F)cc1)CC2 [Example 7.03.001., 1-(2-Amino-4,5,7,8-tetrahydro-thiazolo[4,5-d]azepin-6-yl)-2-(3,5-bis-(4-fluoro-phenyl)-(1,2,4)triazol-1-yl)-ethanone] |

Reference: patent publication US8642774B2, “Compounds” (Boehringer Ingelheim International GmbH, priority 2011, dated 2014)
